Laboratory results as given in patent US10060908B2, “Oxidized cardiolipin as a pro-inflammatory factor” (MEDIRISTA BIOTECHNOLOGIES AB, priority 2008, dated 2018).

T1: Annexin A5 (Homo sapiens, UniProt P08758)
T1 construct: purchased Bender MedSystems GmbH, Austria
T1 sequence (P08758 1-320): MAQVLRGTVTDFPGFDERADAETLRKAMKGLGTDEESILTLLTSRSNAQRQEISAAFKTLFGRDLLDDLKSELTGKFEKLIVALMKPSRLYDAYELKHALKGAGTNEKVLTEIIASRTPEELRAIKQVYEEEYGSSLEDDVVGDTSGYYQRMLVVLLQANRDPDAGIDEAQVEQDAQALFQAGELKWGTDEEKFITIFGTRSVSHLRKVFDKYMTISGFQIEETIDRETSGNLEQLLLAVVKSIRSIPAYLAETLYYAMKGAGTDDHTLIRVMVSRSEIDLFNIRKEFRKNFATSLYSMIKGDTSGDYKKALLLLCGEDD

B1: Annexin A5: member of the Annexin superfamily with anti-thrombotic properties; from Bender MedSystems (protein, UniProt P08758 2-320, looked up)
Annexin A5: AQVLRGTVTDFPGFDERADAETLRKAMKGLGTDEESILTLLTSRSNAQRQEISAAFKTLFGRDLLDDLKSELTGKFEKLIVALMKPSRLYDAYELKHALKGAGTNEKVLTEIIASRTPEELRAIKQVYEEEYGSSLEDDVVGDTSGYYQRMLVVLLQANRDPDAGIDEAQVEQDAQALFQAGELKWGTDEEKFITIFGTRSVSHLRKVFDKYMTISGFQIEETIDRETSGNLEQLLLAVVKSIRSIPAYLAETLYYAMKGAGTDDHTLIRVMVSRSEIDLFNIRKEFRKNFATSLYSMIKGDTSGDYKKALLLLCGEDD

How the values were obtained:
ICAM-1 (CD54) = assay: Adhesion molecule expression by endothelial cells, flow cytometry (ICAM-1); format: cell-based, human; settings: HUVECs, 24 h
Procedure: (§1) Pooled human umbilical vascular endothelial cells (HUVECs) at passage 2 were purchased from Cascade Biologics, Inc (Portland, Ore). Cultures were maintained in EGM™ phenol red-free medium (Clonetics, San Diego, Calif.), containing 2% of fetal bovine serum and supplements, at 37° C. under humidified 5% CO2 conditions. All experiments were performed at passage 3 to 5. HUVECs were seeded at 6×10^4 cells/2 mL density on 6-well plates (NUNC Inc, Naperville, Ill.). After allowing endothelial cells overnight for attachment, cells were ready for stimulation.
(§2) After washing with PBS, OxCL and reduced CL (20 ug/ml) were added. For annexin A5 (From Bender MedSystems GmbH, Austria) inhibition study, OxCL was incubated with Annexin A5 (10 ug/ml) for half hour before adding to cells. After 24 hours incubation, detached floating cells were washed away, cell were harvested into Falcon FACS tubes. […] The intercellular adhesion molecule (ICAM-1) CD54 and the vascular cell adhesion molecule (VCAM-1) CD106 were studied with flow cytometry analysis equipped with CellQuest software. For each sample, 10,000 events were analyzed.

VCAM-1 (CD106) = assay: Adhesion molecule expression by endothelial cells, flow cytometry (VCAM-1); format: cell-based, human; settings: HUVECs, 24 h
Procedure: as §1, §2

IL-6 = IL-6 production by HUVEC, protein multiplex immunoassay; format: cell-based, human; settings: HUVECs, 24 h; for IL-6 levels of the substance alone compared with the control group: 20 ug/ml
Procedure: HUVEC cells from above were seeded at density 10^6/2 ml into 6 well plates. Allowing cells attachment for 24 hours, OxCL (20 ug/ml) with or without Annexin A5 (20 ug/ml) and reduced CL were added and incubated for 24 hours. Cell supernatant were collected and IL-6 and IL-8 production were measured with protein multiplex immunoassay kits (from Bioscource, USA) and Bio-PIei™ system (BioRad, USA).

Annexin A5 = biological target: T1, Annexin A5; assay: ELISA for Annexin A5 binding to coated cardiolipins; settings: lipid 5 ug/ml coated overnight; Annexin A5 0.32-10.24 ug/ml
Procedure: After five washings with PBS, the plates were blocked with 2% PBS-BSA for 2 h at room temperature. Annexin A5 were added and incubated for 1 hour. After washing, bound annexin A5 was detected by incubating subsequently with rabbit anti-human annexin V polyclonal antibodies (Hyphen Biomed, Andresy, France) 1:2000 and polyclonal goat anti-rabbit Immunoglobulins/AP (DakoCytomation) 1:3000 were used. The reaction was developed with alkaline phosphatase substrate (Sigma), and optical density (OD) was read at 405 nm with an ELISA Multiscan Plus spectrophotometer (Molecular Devices Emax, San Francisco). All samples were measured in duplicates and the coefficient of variation was below 15%.

[1] = system: THP-1 differentiated macrophages; assay: Uptake of Dil-labeled OxLDL in macrophages, flow cytometry; format: cell-based, human; settings: competitor 40, 80 ug/ml (LDL 40 ug/ml), Dil-OxLDL 5 ug/ml, 4 hours
Procedure: OxLDL (Industrylane Frederick) were incubated with Dil (Molecular Probes Engene, Oregon, USA) in lipoprotein-deficient serum (Sigma) at 37° C. for 15 hours. Then dialyzed against saline-EDTA buffer for 6 hours.
Uptake of Dil-labelled OxLDL was studied either by Flow cytometry or Fluorescence/confocal microscopy. For microscopy, The macrophages 1×10^6 were grown overnight on culture slides (Nunc, Naperville, N.Y.), For flow cytometry, The macrophages were plated in a 6-well plate at density of 1×10^6 cells/well in DMEM (INVITROGEN, USA) containing 10% FBS overnight. […] Thereafter, the cells from above were washed 4 times with 0.2% BSA/PBS and once with PBS. The cells were harvested in PBS containing 0.1% BSA and 0.01% NaN3. Mean fluorescence intensity was measured by flow cytometry (BD Biosciences, San Jose, Calif., USA). For each sample, fluorescence emission above 550 nm was measured and a minimum of 10.000 cells was analyzed.

neutrophils = assay: Intracellular calcium mobilization, FURA-2AM fluorometer; format: cell-based, human; settings: for MFI of calcium mobilization: within 120 seconds
Procedure: (§3) Human PMNs were isolated from freshly prepared buffy coats (Karolinska Hospital blood bank, Stockholm, Sweden) by dextran sedimentation, hypotonic lysis of erythrocytes and gradient centrifugation on Lymphoprep (Axis-Shield PoC AS, Oslo, Norway). PMNs were suspended at a density of 10×10^6/ml in Dulbecco's PBS (Gibco (Invitrogen), Paisley, UK). PMN purity (>95%) and viability (>98%) was determined using Hemacolor (J. T. Baker, Utrecht, Holland) and Trypan Blue (Sigma Chemical Co.) staining, respectively.
Neutrophils were added into black, 96-well plates with transparent bottom (Corning Costar; 5×10^4 cells/well), and spin down the plate at 120×g for 3 min, afterwards changing the medium containing 4 μM FURA-2AM (Fura-2 acetoxymethyl ester), or buffer as appropriate, and the cells were incubated for 30 min at 37° C. and 5% CO2. Cells were washed four times with 50 μl of a buffer solution (135 mM NaCl, 4.6 mM KCl, 1.2 mM MgCl2, 1.5 mM CaCl2, 11 mM glucose, 11 mM Hepes, pH 7.4) before a final 45 μl volume of buffer was added to each well.
The plates were transferred to a fluorometer (Fluostar™, BMG Technologies), and 50 μl of different agonists according to experimental designs or buffer solution as control were injected into individual wells and the cells were monitored for the next 120 seconds. Control wells containing cells that had not been exposed to FURA-2AM were used to subtract background auto-fluorescence. The results are given as the ratio of mean fluorescence intensity (MFI) between 340 and 380 nm, and normalized by control.

leukotriene B4 = assay: Leukotriene B4 release from neutrophils, EIA; format: cell-based; settings: human neutrophils
Procedure: as §3
(§4) Analysis of leukotriene B4 Biosynthesis by EIA kit 2×10^6 macrophages were incubated with different agents according to the experimental design, and then quenched with an equal volume methanol. After acidified to pH 3-4, the samples were purified by solid-phase extraction (Supelclean™ LC-18, Supelco) and eluted in methanol. After dried under nitrogen, the samples were re-suspended in EIA buffer. The level of LTB4 was determined with LTB4 EIA kit (Cayman Chemical) by using dilutions within the linear portion of the standard curve.

CD8-positive T-cells = assay: Activation of CD8-positive T cells (CD69), flow cytometry; format: cell-based; settings: human PBMC, 5 ug/ml over night
Procedure: Both CD4 and CD8 positive T cells were studied. Quadrant Q2 represent (%) T-cells positive for CD69 expressing and thus activated T-cells.
Both CD4 and CD8 positive T-cells from the cell line Human PBMC where studied in an incubation setup illustrated in FIG. 11A-F. Both T-cell types where incubated with, buffer (control), oxCL or CL to determine the effect on activation, interpreted by the expression of CD69 surface molecule after stimulation.
In this experiment the attention must be drawn to the quadrant Q2 of the flow cytometry data shown. This quadrant represents the percentage of T-cells in the population tested to be CD69 positive, e.g. activated by the stimuli prior to the data collection.

LTB4 = assay: Leukotriene B4 biosynthesis in macrophages, EIA; format: cell-based; settings: human monocyte-derived macrophages
Procedure: Human mononuclear cells were isolated from freshly prepared buffy coats (Karolinska Hospital blood bank, Stockholm, Sweden) by gradient centrifugation on Ficoll-Paque (Amersham Biosciences, Uppsala, Sweden). The mononuclear cells were cultured at a density of 5×10^6/ml in RPMI-1640 medium with 25 mM Hepes, 1% L-glutamine, 1% penicillin-streptomycin and 10% FBS. After 7 days, there are proximate 2×10^6 macrophages per well.
as §4

[2] = oxCL 20 ug/ml preincubated with Annexin A5 10 ug/ml

Molecule | ICAM-1 expression (ICAM-1 (CD54); 20 ug/ml) | VCAM-1 expression (VCAM-1 (CD106); 20 ug/ml) | IL-6 levels of the substance alone compared with the control group (IL-6) | binding to Annexin A5 (Annexin A5) | competition of dil-oxLDL uptake (in words) [1] | MFI of calcium mobilization (neutrophils) | leukotriene B4 release (leukotriene B4) | CD69 expression (activation) of CD8-positive T cells (CD8-positive T-cells) | inhibition of oxCL-induced ICAM-1 (CD54) expression (ICAM-1 (CD54); [2]) | inhibition of oxCL-induced VCAM-1 (CD106) expression (VCAM-1 (CD106); [2]) | IL-6 level, oxCL with Annexin A5 (IL-6; oxCL 20 ug/ml with Annexin A5 20 ug/ml) | inhibition of oxCL-induced calcium mobilization (neutrophils; oxCL incubated with Annexin A5) | inhibition of OxCL-induced LTB4 production (LTB4)
Cardiolipin [CL] | did not show the same effect | did not show the same effect | could not significantly increase | can bind | did not show the competition effetcts | did not increase | did not show the similar reaction | not |  |  |  |  | 
Hydro heart cardiolipin [reduced CL] |  |  |  | could not bind | not |  |  |  |  |  |  |  | 
B1 |  |  | could not significantly increase |  |  | did not increase |  |  | significantly inhibited | significantly inhibited | 276.4 ± 28.62 pg/mL | greatly inhibited | greatly inhibited
